Laboratory results from patent US9204640B2, “2-acyloxy-pyrrolin-4-ones” (BAYER INTELLECTUAL PROPERTY GMBH, priority 2011, dated 2015).

Columns and labels:
Type in all cases: in vivo
[1] = test system: Tetranychus urticae; assay: Tetranychus test (TETRUR spray treatment; OP-resistant in Example 10); settings: application rate 100 g/ha, after 5 days, bean leaf discs
In short: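 Bean leaf discs (Phaseolus vulgaris) infested with all stages of Tetranychus urticae sprayed with compound diluted in emulsifier-containing water. In the standard test, % kill scored after 5 days. The OP-resistant strain test uses the same method with scoring after a set period; 100% = all mites dead, 0% = none.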

[2] = test system: Myzus persicae; assay: Myzus persicae test; hydroponic treatment (MYZUPE Sys); settings: 20 ppm, 6dat
Protocol: Myzus Persicae Test; Hydroponic Treatment (MYZUPE Sys)
To produce a suitable preparation of active compound, 1 part by weight of active compound is mixed with the stated amounts of solvent and emulsifier, and the concentrate is diluted with water to the desired concentration.
The active compound preparation is mixed with water. The stated concentration refers to the amount of active compound per volume unit of water (mg/l=ppm). The treated water is filled into vessels containing a pea plant (Pisum sativum), and the plant is the infested with the green peach aphid (Myzus persicae).
After the desired period of time, the kill in % is determined 100% means that all of the aphids have been killed; 0% means that none of the aphids have been killed.

[3] = test system: Alopecurus myosuroides; assay: Herbicidal post-emergence action, ALOMY; settings: 20 g/ha
In short: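 Weeds sown in sandy loam, grown in greenhouse 2–3 weeks and treated post-emergence at one-leaf stage (or BBCH 10–13, 5–10 cm) with WP/EC formulations sprayed at various dosages (600–800 l/ha water, 0.1–0.2% wetting agent). Visual rating after about 3 weeks as % activity versus untreated (100% = dead).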

CCOC(=O)OC1=C(c2c(C)cc(I)cc2CC)C(=O)C2(CCC(OC)CC2)N1 (mixture of isomers) [I-b-2]
effect in % (spider mites killed) [1]: 80%
% Activity MYZUPE sys [2]: 99%
% Activity ALOMY [3]: 90%
